Values joined by “and” are separate entries in the source; they are usually repeats but may differ in a detail not shown here. Equal values may be shown once. Read-outs that look alike come from different tables or passages of the source.
What was measured:
[1] = system: mouse PD-1-mCherry-super degron (SD) tag; experiment: Degradation of SD-tagged mouse PD-1-mCherry in Jurkat cells, flow cytometry 24 h; type: cell-based, human; conditions: for Bottom, mCherry (mC): no reagent = 1; for Bottom, PD-1 (FITC): surface PD-1, no reagent = 1
Description: To identify a tag that could efficiently knock down mouse PD-1, we connected various degron tags to the C-terminus of PD-1, including IKZF1/3, Sall4, ZFP91, and SD, and generated Jurkat human T cell lymphoma cell lines that stably expressed the mouse PD-1-degron tag (Figure 1A). […] Therefore, a human cell line was used because it was thought that mouse CRBN would not degrade SD by thalidomide analogs. […] We also analyzed the degradation of total proteins using mCherry.
(C and D) The amount was standardized with the sample to which no reagent was added as 1. Concentrations of reagents were 0 (−), 5, 10, and 20 μM for IKZF minimal, IKZF full-length, and Sall4 tags and 0 (−), 0.5, 5 μM for SD tag. The dots indicate the results of the experiment for each of samples.

EGFP-SD = EGFP-SD (Aequorea victoria, UniProt P42212, F64L/H231L/S65T); type: cell-based, mouse; conditions: stable; for DC50: read-out: DC50, EGFP-SD
EGFP-IKZF = EGFP-IKZF (UniProt P42212+Q8C7D2, F64L/H231L/INS1V/S65T); type: cell-based, mouse; conditions: read-out: DC50, EGFP-IKZF, stable
Chain of EGFP-IKZF (Q8C7D2 whole entry, looked up, stated change not applied, other chains not shown): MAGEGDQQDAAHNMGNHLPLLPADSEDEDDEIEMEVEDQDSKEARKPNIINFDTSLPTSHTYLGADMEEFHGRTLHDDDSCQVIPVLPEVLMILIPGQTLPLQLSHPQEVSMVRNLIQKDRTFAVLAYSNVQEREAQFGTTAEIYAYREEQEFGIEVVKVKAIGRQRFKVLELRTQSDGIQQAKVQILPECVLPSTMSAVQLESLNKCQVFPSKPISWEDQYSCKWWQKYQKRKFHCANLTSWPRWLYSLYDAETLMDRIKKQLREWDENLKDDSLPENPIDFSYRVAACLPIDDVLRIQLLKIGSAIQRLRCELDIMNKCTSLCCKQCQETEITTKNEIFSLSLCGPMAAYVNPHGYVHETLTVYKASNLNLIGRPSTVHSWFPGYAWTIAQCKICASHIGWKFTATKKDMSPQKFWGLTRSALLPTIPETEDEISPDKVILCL

[2] = biological target: endogenous PD-1 tagged with SD (Mus musculus, UniProt Q02242+Q8C7D2); experiment: Endogenous PD-1-SD on concanavalin A-stimulated spleen T cells, flow cytometry; type: cell-based; conditions: for percentage of activated T cells characterized by FSC high: Con A-stimulated splenocytes; for PD-1 on CD8+ and CD4+ cells: Con A, 24 h after 1 μM POM or 0.1–1 μM IBR
Chain of endogenous PD-1 tagged with SD (Q02242 with tags, fused parts or gaps): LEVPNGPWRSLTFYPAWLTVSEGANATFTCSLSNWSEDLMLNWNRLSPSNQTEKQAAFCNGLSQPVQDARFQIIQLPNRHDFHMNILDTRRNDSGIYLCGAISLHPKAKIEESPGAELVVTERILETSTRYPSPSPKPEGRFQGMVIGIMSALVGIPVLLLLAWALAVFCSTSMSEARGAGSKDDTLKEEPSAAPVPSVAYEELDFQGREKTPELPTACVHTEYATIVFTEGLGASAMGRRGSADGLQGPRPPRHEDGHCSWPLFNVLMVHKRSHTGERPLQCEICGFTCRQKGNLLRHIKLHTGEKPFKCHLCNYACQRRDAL
Chain of endogenous PD-1 tagged with SD (Q8C7D2 whole entry): as the sequence (Q8C7D2 whole entry, looked up, stated change not applied, other chains not shown) above
Chain of endogenous PD-1 tagged with SD (Q3U1J4 whole entry partner): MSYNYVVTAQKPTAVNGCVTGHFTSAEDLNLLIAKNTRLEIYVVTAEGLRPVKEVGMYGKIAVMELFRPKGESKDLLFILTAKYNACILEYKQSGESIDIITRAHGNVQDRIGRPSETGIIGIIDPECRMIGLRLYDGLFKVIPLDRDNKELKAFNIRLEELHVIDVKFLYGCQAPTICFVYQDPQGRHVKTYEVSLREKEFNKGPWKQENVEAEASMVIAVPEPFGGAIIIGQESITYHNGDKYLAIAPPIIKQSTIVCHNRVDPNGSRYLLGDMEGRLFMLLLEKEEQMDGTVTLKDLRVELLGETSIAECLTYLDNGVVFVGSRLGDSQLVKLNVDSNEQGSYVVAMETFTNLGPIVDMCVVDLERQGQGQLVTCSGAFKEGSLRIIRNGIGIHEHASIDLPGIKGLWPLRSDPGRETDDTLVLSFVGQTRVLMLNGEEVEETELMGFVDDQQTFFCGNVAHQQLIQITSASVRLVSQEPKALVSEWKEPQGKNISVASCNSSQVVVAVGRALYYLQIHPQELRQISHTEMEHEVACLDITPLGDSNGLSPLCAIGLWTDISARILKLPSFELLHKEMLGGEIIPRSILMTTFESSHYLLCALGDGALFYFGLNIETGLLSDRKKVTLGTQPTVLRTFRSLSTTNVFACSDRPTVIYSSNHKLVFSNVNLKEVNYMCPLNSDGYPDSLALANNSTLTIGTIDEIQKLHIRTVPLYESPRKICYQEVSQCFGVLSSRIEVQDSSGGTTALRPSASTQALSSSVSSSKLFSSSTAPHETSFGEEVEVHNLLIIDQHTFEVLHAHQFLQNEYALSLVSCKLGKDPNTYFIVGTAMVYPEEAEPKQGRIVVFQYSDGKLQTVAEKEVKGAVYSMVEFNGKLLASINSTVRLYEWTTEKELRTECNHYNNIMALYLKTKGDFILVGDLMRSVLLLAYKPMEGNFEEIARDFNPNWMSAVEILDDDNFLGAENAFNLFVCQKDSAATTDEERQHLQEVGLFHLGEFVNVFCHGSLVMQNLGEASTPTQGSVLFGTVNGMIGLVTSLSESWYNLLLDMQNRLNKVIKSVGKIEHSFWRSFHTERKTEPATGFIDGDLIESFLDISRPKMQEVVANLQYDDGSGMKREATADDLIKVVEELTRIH
Procedure: The dotted lines show an isotype control without IBR. […] The dotted lines show an isotype control without IBR. […] The black lines show isotype control without IBR. […] Red lines show the boundary between positive and negative. […] (B–J) IBR or solvent (−) was added to cultured splenocytes (B–G) or mESCs (H–J). […] The concentration is 0.1 μM in the rightmost bar in each group, and the left neighbor is a step dilution of one-tenth. Intensities of anti-PD-1-FITC on CD4^+ and CD8^+ T cells were measured by flow cytometry, and the geometric means of fluorescence intensities (MFI) were calculated. The MFI of the isotype control of anti-PD-1-FITC was subtracted from each MFI of anti-PD-1-FITC. The dots indicate the results of the experiment for each of the three samples from different individuals.
Pdcd1^SD/SD/Crbn^I391V/I391V spleen-derived T cells were stimulated in vitro with concanavalin A (Con A) followed by treatment with thalidomide analogs to examine PD-1 expression (Figures 6B–6D and S6A–S6C).
To determine whether the same phenomenon occurs in non-T cells, exogenous PD-1 degradation was examined in mESCs transfected with PD-1-SD expression vectors (Figures 6H–6J and S6E). […] We hypothesized that the degradation efficiency of membrane-localized proteins might be reduced in mouse-type CRBNs. Therefore, we expressed EGFP-SDs with membrane-localized peptides attached to their N-termini in mESCs and added IBR. The degradation efficiency of EGFP-SD with membrane-localization peptide[32] […] Therefore, Pdcd1^SD/SD/Crbn^I391V/I391V mice were used for further analyses.
Splenocytes were harvested after the mice were euthanized. Splenocytes were isolated in RPMI 1640 medium and collected using a 70 μm filter. After treatment with ACT solution to remove red blood cells, splenocyte culture was performed at a density of 2 × 10^6 cells/mL in RPMI 1640 with 10% FBS, Glutamax and penicillin-streptomycin and incubated at 37°C in a 5% CO2 containing atmosphere. To activate T cells, 0.5 μg/mL concanavalin A was added to the medium for 3 days to activate T cells.

[3] = biological target: PD-1 tagged with SD in the brain (Mus musculus, UniProt Q02242+Q8C7D2); experiment: PD-1 expression in brain, western blotting; type: in vivo; conditions: Pdcd1SD/SD/CrbnI391V/I391V mice
Chain of PD-1 tagged with SD in the brain (Q02242 with tags, fused parts or gaps): as the sequence (Q02242 with tags, fused parts or gaps) above
Chain of PD-1 tagged with SD in the brain (Q8C7D2 whole entry): as the sequence (Q8C7D2 whole entry, looked up, stated change not applied, other chains not shown) above
Chain of PD-1 tagged with SD in the brain (Q3U1J4 whole entry partner): as the sequence (Q3U1J4 whole entry partner) above
Procedure: Although the growth of GL-261 in the brain was inhibited, it is likely that the BBB was destroyed in cancer growth experiments in which GL-261 was transplanted.[34] Therefore, we conducted an experiment in which IBR was administered without the transplantation of brain tumor cell lines as a model for protein degradation experiments in the brain under normal conditions. […] Thus, this degron system can be used in the brain.
Brain tissue was collected after the mice were deeply anesthetized and perfused with PBS to remove blood. They were immediately frozen in liquid nitrogen and homogenized in Nervous Tissue Protein Extraction buffer (TCI, Tokyo, Japan). After centrifuging the lysate at 20,000 g for 10 min at 4°C, heated at 98°C for 3 min with NuPAGE Sample Reducing Agent (Thermo Fisher Scientific) and NuPAGE LDS Sample buffer (Thermo Fisher Scientific), the supernatant was used for SDS-PAGE. SDS-PAGE was performed using a 5–12% polyacrylamide gel (FUJIFILM Wako) and NuPAGE MOPS SDS running buffer (Thermo Fisher Scientific) for 1 h, 120 V. One microgram of protein was loaded in each lane. […] After three washes with PBST, the secondary antibodies were detected using ImmunoStar (FUJIFILM Wako) and LAS 3000 (FUJIFILM). […]

[4] = CrbnI391V/I391V mESCs, Figure 5E
[5] = Pdcd1SD/SD/CrbnI391V/I391V T cells

Structure (SMILES)	concentration showing the same effect on PD-1-SD [1]	Bottom, mCherry (mC) [1]	Bottom, PD-1 (FITC) [1]	Bottom, EGFP-SD (EGFP-SD; B6J-S1 mESCs, Figure 5D)	LogDC50, EGFP-SD (EGFP-SD; B6J-S1 mESCs, Figure 5D)	Bottom, EGFP-SD (EGFP-SD; [4])	LogDC50, EGFP-SD (EGFP-SD; [4])	DC50 (EGFP-SD; B6J-S1 mESCs, Figure 5D)	DC50 (EGFP-SD; [4])	DC50 (EGFP-IKZF; [4])	percentage of activated T cells characterized by FSC high [2]	PD-1 on CD8+ and CD4+ cells [2, 5]	also measured
O=C1CC[C@H](N2Cc3c(OCc4ccc(CN5CCOCC5)cc4)cccc3C2=O)C(=O)N1 [IBR, iberdomide]	0.5 µM	0.2415	0.1258	0.02363	-3.579 μM	0.04851	-4.174 μM	0.264 nM	0.067 nM	0.639 nM	not affected	barely observed	Bottom, EGFP-SD (EGFP-SD; B6J-S1 mESCs, Figure 5B): 0.05422; LogDC50, EGFP-SD (EGFP-SD; B6J-S1 mESCs, Figure 5B): -3.152 μM; DC50 (EGFP-SD; B6J-S1 mESCs, Figure 5B): 0.704 nM; DC50 (EGFP-IKZF; B6J-S1 mESCs, Figure 5B): 29.1 nM; PD-1 degradation ([2]; Pdcd1SD/SD/Crbn+/+ T cells): barely degraded; PD-1 removal ([2]; Pdcd1SD/SD/CrbnI391V/I391V T cells, 10^−2 μM and 10^−3 μM IBR): mostly removed; PD-1 expression in the brain ([3]; IBR 10 mg/kg oral, 24 h): no changes in PD-1 expression in the brain
Nc1cccc2c1C(=O)N(C1CCC(=O)NC1=O)C2=O (stereo not shown) [POM, pomalidomide]	5 µM	0.2421	0.11 and 0.1083	0.01974	-2.853 μM	0.06229	-2.993 μM	1.4 nM	1.02 nM	5.11 nM	not affected	barely observed	DC50 ([1]; read-out: DC50, PD-1 (FITC), surface PD-1): 148 nM; DC50 ([1]; read-out: DC50, mCherry (mC), mCherry): 234 nM; PD-1 amount in the brain vs vehicle ([3]; 20 mg/kg POM oral, after 24 h): reduced to half the amount
